# Assay results as given in US11154551B2, “HDAC1,2 inhibitors and methods of using the same” (UNIVERSITY OF UTAH RESEARCH FOUNDATION, priority 2014, dated 2021).
# Test system: Karpas-422, SUDHL4, WSU-DLCL2 and HeLa cells
# Assay: laser micro-irradiation repair assay, H3K27me3 at break sites
# Type: cell-based, human
# Conditions: 15 min recovery, vs DMSO
# Experimental: Following DMSO or ACY-957 treatment, cells were exposed to a 5Gy dose of ionizing radiation and allowed to recover for 30 minutes prior to chromatin extraction. Western blots were performed with anti-H3K27ac or anti-H3K27me3 with histone H3 serving as a loading control. (B-E): Karpas-422, SUDHL4, WSU-DLCL2 and HeLa cells were laser micro-irradiated and allowed to recover for 15 minutes before fixation and immunofluorescence staining with anti-γH2AX and anti-H3K27me3. Subsequently, the percentage of cells with H3K27me3 lines that co-localized with γH2AX were counted. Merge is the overlay of γH2AX and H3K27me3 pictures. (F-I): At least 100 cells with γH2AX lines were counted in each experiment. The quantitation shown was the average calculated from independent experiments+/−standard error. Quantitation from five, seven, five and six independent experiments performed in Karpas-422, SUDHL4, WSU-DLCL2 and HeLa cells, respectively, was used in the graph shown in this figure. […]
# (A) Measurement of repair efficiency in SUDHL5 (EZH2^WT) and Karpas-422 (EZH2^GOF) cells using neutral comet assay that detects only double-strand breaks (DSBs). […] H3K27me3, γH2AX, Bmi-1, and serine2-phosphorylated RNA Polymerase II (engaged in transcriptional elongation) were monitored at laser break sites (arrows) after 15 minutes of recovery time. […]
smiles,measurement,setting,value
"Nc1ccc(-c2cccs2)cc1NC(=O)c1ccc2nc(N3CCNCC3)ccc2c1 [ACY-957, N-(2-amino-5-(thiophen-2-yl)phenyl)-2-(piperazin-1-yl)quinoline-6-carboxamide]",H3K27me3 at laser-induced break sites,,reduced the extent of H3K27me3 present at laser-induced break sites
same,H3K27me3 at laser-induced break sites,listed as ACY957,abolished
